Values quoted from earlier work as cited in patent US6783757B2, “Composition and method for increasing exorphin catabolism to treat autism” (Kirkman Group, Inc., priority 2000, dated 2004).

Tested on: DPPIV
Details: cultured mouse intestinal wall cells (enterocyte cells)

O=C[C@H](O)[C@@H](O)[C@@H](O)[C@H](O)CO [galactose]
expression of DPPIV: increase the expression of DPPIV
